EC50 data for 51 compounds are collected here from patent US11472808B2, “Substituted pyrrolo[1,2-c]pyrimidines as hepatitis B antiviral agents” (Enanta Pharmaceuticals, Inc., priority 2019, dated 2022).

This assay concerns HBV. Nature of the assay: HepAD38 anti-HBV assay: reduction of viral product accumulation (virion DNA qPCR, HBsAg/HBeAg ELISA). Type of assay: cell-based. The settings on record: Hepatitis B virus, 120 h; HepAD38 cells; concentration reducing viral product accumulation by 50% relative to no drug controls; harvest five days after compound addition; read-out: HepAD38 EC50. The gist of the method: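 EC50 values reflect 50% reduction, relative to untreated controls, in virion DNA (qPCR) or HBsAg/HBeAg (ELISA) from lysates or supernatants. Washed HepAD38 cells without tetracycline were exposed to compound for 5 days. In the 8-day variant, medium and compound were renewed on days 2 and 5.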
Background: In qPCR the cycle at which signal appears reflects the starting amount.
As for `CC(C)[C@@H](NS(=O)(=O)N[C@H]1CC2=C(c3ccn(C(F)F)n3)[C@H](c3ccc(F)cc3Cl)N=C(c3nccs3)N2C1)c1ccccn1` [Example 341], the EC50 lay in the range of 100 to 400 nM. In the case of `CCOC(=O)C(NS(=O)(=O)N[C@H]1CC2=C(c3ccn(C(F)F)n3)[C@H](c3ccc(F)cc3Cl)N=C(c3nccs3)N2C1)c1ccccn1` (stereo partly drawn) [Example 343], the EC50 is less than 100 nM. The same measure for `CS(=O)(=O)NCCS(=O)(=O)N[C@H]1CC2=C(c3ccn(C(F)F)n3)[C@H](c3ccc(F)cc3Cl)N=C(c3nccs3)N2C1` [Example 344]: 100 to 400 nM. For the compound `CS(=O)(=O)CC(NS(=O)(=O)N[C@H]1CC2=C(c3ccn(C(F)F)n3)[C@H](c3ccc(F)cc3Cl)N=C(c3nccs3)N2C1)c1ccccn1` (stereo partly drawn) [Example 345], the EC50 was less than 100 nM. The same measure for `O=S(=O)(Nc1ccc(-c2ccccn2)cc1)N[C@H]1CC2=C(c3ccn(C(F)F)n3)[C@H](c3ccc(F)cc3Cl)N=C(c3nccs3)N2C1` [Example 346]: less than 100 nM. Consider `CS(=O)(=O)c1ccc(NS(=O)(=O)N[C@H]2CC3=C(c4ccn(C(F)F)n4)[C@H](c4ccc(F)cc4Cl)N=C(c4nccs4)N3C2)cc1` [Example 347], for which the concentration giving a half-maximal response (EC50) lay in the range of 100 to 400 nM. As for `O=S(=O)(Nc1ccc(C(O)c2ccccn2)cc1)N[C@H]1CC2=C(c3ccn(C(F)F)n3)[C@H](c3ccc(F)cc3Cl)N=C(c3nccs3)N2C1` (stereo partly drawn) [Example 348], the figure is less than 100 nM; as for `CS(=O)(=O)Nc1ccc(NS(=O)(=O)N[C@H]2CC3=C(c4ccn(C(F)F)n4)[C@H](c4ccc(F)cc4Cl)N=C(c4nccs4)N3C2)cc1` [Example 349], less than 100 nM; as for `O=S(=O)(NCCCc1ccccn1)N[C@H]1CC2=C(c3ccn(C(F)F)n3)[C@H](c3ccc(F)cc3Cl)N=C(c3nccs3)N2C1` [Example 350], 100 to 400 nM. `CC[C@H](NS(=O)(=O)N[C@H]1CC2=C(c3ccn(C(F)F)n3)[C@H](c3ccc(F)cc3Cl)N=C(c3nccs3)N2C1)c1ccccn1` [Example 351]: the EC50 is less than 100 nM.

For the compound `CC[C@@H](NS(=O)(=O)N[C@H]1CC2=C(c3ccn(C(F)F)n3)[C@H](c3ccc(F)cc3Cl)N=C(c3nccs3)N2C1)c1ccccn1` [Example 352], the EC50 lay within 100 to 400 nM.

For the compound `O=S(=O)(N[C@H]1CC2=C(c3ccn(C(F)F)n3)[C@H](c3ccc(F)cc3Cl)N=C(c3nccs3)N2C1)N[C@@H](c1ccccn1)C1CC1` [Example 354], the EC50 is 100 to 400 nM. As for `CCOC(=O)CC(NS(=O)(=O)N[C@H]1CC2=C(c3ccn(C(F)F)n3)[C@H](c3ccc(F)cc3Cl)N=C(c3nccs3)N2C1)c1ccccn1` (stereo partly drawn) [Example 355], the EC50 was 100 to 400 nM.

Regarding `O=C(O)CC(NS(=O)(=O)N[C@H]1CC2=C(c3ccn(C(F)F)n3)[C@H](c3ccc(F)cc3Cl)N=C(c3nccs3)N2C1)c1ccccn1` (stereo partly drawn) [Example 356], the EC50 was 100 to 400 nM. As for `CC(C)C[C@@H](NS(=O)(=O)N[C@H]1CC2=C(c3ccn(C(F)F)n3)[C@H](c3ccc(F)cc3Cl)N=C(c3nccs3)N2C1)c1ccccn1` [Example 360], the figure is 100 to 400 nM; as for `O=S(=O)(N[C@H]1CC2=C(c3ccn(C(F)F)n3)[C@H](c3ccc(F)cc3Cl)N=C(c3nccs3)N2C1)c1cccc(Br)n1` [Example 366], less than 100 nM. As for `O=C(CC1(S(=O)(=O)N[C@H]2CC3=C(c4ccn(C(F)F)n4)[C@H](c4ccc(F)cc4Cl)N=C(c4nccs4)N3C2)CC1)NCc1ccccn1` [Example 372], the figure is less than 100 nM; as for `C[C@@H](NC(=O)CC1(S(=O)(=O)N[C@H]2CC3=C(c4ccn(C(F)F)n4)[C@H](c4ccc(F)cc4Cl)N=C(c4nccs4)N3C2)CC1)c1ccccn1` [Example 373], less than 100 nM. As for `C[C@H](NC(=O)CC1(S(=O)(=O)N[C@H]2CC3=C(c4ccn(C(F)F)n4)[C@H](c4ccc(F)cc4Cl)N=C(c4nccs4)N3C2)CC1)c1ccccn1` [Example 374], the figure is less than 100 nM; as for `O=S1(=O)CCCN1[C@H]1CC2=C(c3ccn(C(F)F)n3)[C@H](c3ccc(F)cc3Cl)N=C(c3nccs3)N2C1` [Example 375], 100 to 400 nM; as for `O=S(=O)(CCc1ccccn1)N[C@H]1CC2=C(c3ccn(C(F)F)n3)[C@H](c3ccc(F)cc3Cl)N=C(c3nccs3)N2C1` [Example 380], 100 to 400 nM. For `CC(C)(C)OC(=O)Nc1cccc(S(=O)(=O)N[C@H]2CC3=C(c4ccn(C(F)F)n4)[C@H](c4ccc(F)cc4Cl)N=C(c4nccs4)N3C2)n1` [Example 382], the EC50 was in the range of 100 to 400 nM. The same measure for `O=S(=O)(N[C@H]1CC2=C(c3ccn(C(F)F)n3)[C@H](c3ccc(F)cc3Cl)N=C(c3nccs3)N2C1)c1ccc([C@H]2CC[C@@](O)(c3ccccn3)CC2)cc1` [Example 384]: less than 100 nM. As for `O=S(=O)(N[C@H]1CC2=C(c3ccn(C(F)F)n3)[C@H](c3ccc(F)cc3Cl)N=C(c3nccs3)N2C1)[C@H]1C[C@@H]1c1ccccn1` [Example 390], the figure is 100 to 400 nM; as for `O=S(=O)(N[C@H]1CC2=C(c3ccn(C(F)F)n3)[C@H](c3ccc(F)cc3Cl)N=C(c3nccs3)N2C1)[C@H]1C[C@H]1c1ccccn1` [Example 391], 100 to 400 nM; as for `O=S(=O)(N[C@H]1CC2=C(c3ccn(C(F)F)n3)[C@H](c3ccc(F)cc3Cl)N=C(c3nccs3)N2C1)c1ccc(F)cc1` [Example 392], 100 to 400 nM.

In the case of `O=S(=O)(N[C@H]1CC2=C(c3ccn(C(F)F)n3)[C@H](c3ccc(F)cc3Cl)N=C(c3nccs3)N2C1)c1ccc(F)c(F)c1` [Example 393], the EC50 is 100 to 400 nM. As for `O=S(=O)(N[C@H]1CC2=C(c3ccn(C(F)F)n3)[C@H](c3ccc(F)cc3Cl)N=C(c3nccs3)N2C1)c1cc(Cl)cc(Cl)c1` [Example 395], the figure is 100 to 400 nM; as for `O=S(=O)(N[C@H]1CC2=C(c3ccn(C(F)F)n3)[C@H](c3ccc(F)cc3Cl)N=C(c3nccs3)N2C1)c1cccc(Cl)c1F` [Example 396], 100 to 400 nM; as for `O=S(=O)(N[C@H]1CC2=C(c3ccn(C(F)F)n3)[C@H](c3ccc(F)cc3Cl)N=C(c3nccs3)N2C1)c1ccc2ncccc2c1` [Example 397], less than 100 nM. The same measure for `O=S(=O)(N[C@H]1CC2=C(c3ccn(C(F)F)n3)[C@H](c3ccc(F)cc3Cl)N=C(c3nccs3)N2C1)c1ccc2ncsc2c1` [Example 398]: less than 100 nM; for `O=S(=O)(N[C@H]1CC2=C(c3ccn(C(F)F)n3)[C@H](c3ccc(F)cc3Cl)N=C(c3nccs3)N2C1)c1cccc(C(F)(F)F)c1` [Example 399]: 100 to 400 nM.

Consider `O=S(=O)(N[C@H]1CC2=C(c3ccn(C(F)F)n3)[C@H](c3ccc(F)cc3Cl)N=C(c3nccs3)N2C1)c1ccc(-c2ccccn2)s1` [Example 400], for which the EC50 is less than 100 nM. As for `O=S(=O)(N[C@H]1CC2=C(c3ccn(C(F)F)n3)[C@H](c3ccc(F)cc3Cl)N=C(c3nccs3)N2C1)c1c(Cl)cccc1Cl` [Example 402], the EC50 lay in the range of 100 to 400 nM. With `Cn1cc(S(=O)(=O)N[C@H]2CC3=C(c4ccn(C(F)F)n4)[C@H](c4ccc(F)cc4Cl)N=C(c4nccs4)N3C2)cn1` [Example 404], the EC50 was less than 100 nM. For the compound `CC1(S(=O)(=O)N[C@H]2CC3=C(c4ccn(C(F)F)n4)[C@H](c4ccc(F)cc4Cl)N=C(c4nccs4)N3C2)CC1` [Example 405], the EC50 is less than 100 nM. The same measure for `O=S(=O)(N[C@H]1CC2=C(c3ccn(C(F)F)n3)[C@H](c3ccc(F)cc3Cl)N=C(c3nccs3)N2C1)c1ccc(C(F)(F)F)cc1` [Example 406]: less than 100 nM.

Take `O=S(=O)(N[C@H]1CC2=C(c3ccn(C(F)F)n3)[C@H](c3ccc(F)cc3Cl)N=C(c3nccs3)N2C1)c1cc(F)cc(F)c1` [Example 407]: the EC50 is 100 to 400 nM. With `O=S(=O)(N[C@H]1CC2=C(c3ccn(C(F)F)n3)[C@H](c3ccc(F)cc3Cl)N=C(c3nccs3)N2C1)c1cccc(C2CC2)n1` [Example 408], the EC50 is less than 100 nM.

With `O=S(=O)(N[C@H]1CC2=C(c3ccn(C(F)F)n3)[C@H](c3ccc(F)cc3Cl)N=C(c3nccs3)N2C1)c1cccc(-c2ccccc2)n1` [Example 409], the EC50 is less than 100 nM. As to `O=S(=O)(N[C@H]1CC2=C(c3ccn(C(F)F)n3)[C@H](c3ccc(F)cc3Cl)N=C(c3nccs3)N2C1)c1cc(F)c(F)c(F)c1` [Example 412], the EC50 is less than 100 nM. Turning to `CC(C)[C@]1(O)CC[C@@H](c2ccc(S(=O)(=O)N[C@H]3CC4=C(c5ccn(C(F)F)n5)[C@H](c5ccc(F)cc5Cl)N=C(c5nccs5)N4C3)cc2)CC1` [Example 413], the EC50 is less than 100 nM. For `CC(C)[C@]1(O)CC[C@H](c2ccc(S(=O)(=O)N[C@H]3CC4=C(c5ccn(C(F)F)n5)[C@H](c5ccc(F)cc5Cl)N=C(c5nccs5)N4C3)cc2)CC1` [Example 414], the EC50 was less than 100 nM.

Take `O=S(=O)(NC1CCC1)N[C@H]1CC2=C(c3ccn(C(F)F)n3)[C@H](c3ccc(F)cc3Cl)N=C(c3nccs3)N2C1` [Example 415]: the EC50 was less than 100 nM. Turning to `CC1(NS(=O)(=O)N[C@H]2CC3=C(c4ccn(C(F)F)n4)[C@H](c4ccc(F)cc4Cl)N=C(c4nccs4)N3C2)CCC1` [Example 416], the EC50 is less than 100 nM. As for `O=S(=O)(NC1CCCCC1)N[C@H]1CC2=C(c3ccn(C(F)F)n3)[C@H](c3ccc(F)cc3Cl)N=C(c3nccs3)N2C1` [Example 417], the figure is less than 100 nM.

With `Fc1ccc([C@@H]2N=C(c3nccs3)N3C[C@@H](Nc4ccccn4)CC3=C2c2ccn(C(F)F)n2)c(Cl)c1` [Example 418], the EC50 was 100 to 400 nM. As to `O=C(N[C@H]1CC2=C(c3ccn(C(F)F)n3)[C@H](c3ccc(F)cc3Cl)N=C(c3nccs3)N2C1)C(=O)c1ccccc1` [Example 419], the EC50 was 100 to 400 nM. With `O=C(Nc1ccc(F)c(F)c1)c1cccc(S(=O)(=O)N[C@H]2CC3=C(c4ccn(C(F)F)n4)[C@H](c4ccc(F)cc4Cl)N=C(c4nccs4)N3C2)c1` [Example 422], the EC50 fell in the range of 100 to 400 nM. The same measure for `O=S(=O)(N[C@H]1CC2=C(c3ccn(C(F)F)n3)[C@H](c3ccc(F)cc3Cl)N=C(c3nccs3)N2C1)c1cccc(-n2cccn2)n1` [Example 423]: 100 to 400 nM; for `O=S(=O)(N[C@H]1CC2=C(c3ccn(C(F)F)n3)[C@H](c3ccc(F)cc3Cl)N=C(c3nccs3)N2C1)C1(C[C@H](O)CO)CC1` [Example 425]: less than 100 nM.

Broadly, the EC50 is the concentration needed to bring the measured effect to its halfway point.
